# Reference: US20120282187A1 (BOEHRINGER INGELHEIM INTERNATIONAL GMBH, priority 2008, published 2012)
# Where two headings read alike, the source gives them in different places. Marks after values point to notes of the source that are not given here.
# Tests used:
# [1] = tested on: patients with atrial fibrillation
# Protocol: The PETRO-Ex study was conducted in 52 centers in the United States, Denmark, The Netherlands, and Sweden.
# PETRO-Ex began while the PETRO study was ongoing and investigators were initially kept blinded to patient treatment group until PETRO was completed. Unblinding investigators to patient treatment was possible thereafter.
# Data were summarized descriptively; no hypothesis was to be tested. Events were analyzed on the basis of the treatment at onset. Incidences were reported as of patients with events as well as normalized to 100 patient-years on the respective treatment.
# Patients who were down titrated to 50 mg q.d. based on a glomerular filtration rate≦50 mL/min during PETRO were excluded from the long-term trial; patients down-titrated in other dose levels remained on the q.d. treatment at that dose.
# The total exposure reflects both trials, PETRO and PETRO-Ex, together.
# [2] = Clinical pharmacokinetics and pharmacodynamics of dabigatran etexilate; assay type: in vivo
# From the text: Ezekowitz M D, et al., Dabigatran with or without concomitant aspirin compared with warfarin alone in patients with nonvalvular atrial fibrillation (PETRO study), Am. […] The PETRO study is described below.
# As noted above, management of warfarin therapy is complex, and failure to adequately monitor patients is associated with risk. […] It also interacts with many common foods, drugs and alcohol which alter its therapeutic effect, putting patients at risk of either a bleeding or thrombotic event. Therefore, warfarin therapy requires careful individualized dosing and frequent monitoring. The significant limitations of VKAs have created a need for an oral anticoagulant with a rapid onset of action, minimal drug interactions, and a predictable anticoagulation effect that needs no monitoring.
# (§1) Peak levels are seen within 2-3 hours of oral administration. […] Steady-state is reached within 2-3 days with a twice daily regimen. […] The remainder undergoes conjugation with glucuronic acid to form acylglucuronides which are excreted primarily in the bile.
# [3] = tested on: cytochrome P-450 drug metabolizing enzymes; assay: Cytochrome P-450 interaction; assay type: in vitro ADME
# Protocol: as §1
# [4] = PETRO-Ex, including bleeding and thrombotic events
compound,measurement,setting,value
"CCCCCCOC(=O)NC(=N)c1ccc(NCc2nc3cc(C(=O)N(CCC(=O)OCC)c4ccccn4)ccc3n2C)cc1 [Dabigatran etexilate, 1-methyl-2-[N-[4-(N-n-hexyloxycarbonylamidino)phenyl]aminomethyl]benzimidazol-5-ylcarboxylic acid-N-(2-pyridyl)-N-(2-ethoxycarbonylethyl)amides]","Major Bleeds with aspirin, number",[1]; 300 mg b.i.d.,6
same,"Major Bleeds with aspirin, rate",[1]; 300 mg b.i.d.,32.7 per 100 patient-years
same,"Major Bleeds without aspirin, number",[1]; 300 mg b.i.d.,4
same,"Major Bleeds without aspirin, rate",[1]; 300 mg b.i.d.,6.3 per 100 patient-years
same,"Major Bleeds, number",[1]; 300 mg b.i.d.,10
same,"Major Bleeds, rate",[1]; 300 mg b.i.d.,12.2 per 100 patient-years
same,Major bleeding events,[1]; 300 mg b.i.d.,12.2 % per year
same,"Other MACE, number",[1]; 300 mg b.i.d.,1
same,"Stroke and Systemic Thromboembolism, number",[1]; 300 mg b.i.d.,1
same,"TIA, number",[1]; 300 mg b.i.d.,0
same,bleeding events,[1]; 300 mg b.i.d.,more than 12 per 100 years
same,"ALT or AST >2xULN, number",[1]; 300 mg q.d.,3
same,"ALT or AST >2xULN, rate",[1]; 300 mg q.d.,1.5 per 100 patient-years
same,"ALT or AST >3xULN and Bili >2xULN within 30 days, number",[1]; 300 mg q.d.,1
same,"ALT or AST >3xULN and Bili >2xULN within 30 days, rate",[1]; 300 mg q.d.,0.5 per 100 patient-years
same,"ALT or AST >3xULN, number",[1]; 300 mg q.d.,3
same,"ALT or AST >3xULN, rate",[1]; 300 mg q.d.,1.5 per 100 patient-years
same,"ALT or AST >5xULN, number",[1]; 300 mg q.d.,3
same,"ALT or AST >5xULN, rate",[1]; 300 mg q.d.,1.5 per 100 patient-years
same,"Adverse Events leading to premature discontinuation, number",[1]; 300 mg q.d.,19
same,"Adverse Events leading to premature discontinuation, rate",[1]; 300 mg q.d.,9.6 per 100 patient-years
same,"MI, number",[1]; 300 mg q.d.,1
same,"Major Bleeds with aspirin, number",[1]; 300 mg q.d.,2
same,"Major Bleeds with aspirin, rate",[1]; 300 mg q.d.,3.6 per 100 patient-years
same,"Major Bleeds without aspirin, number",[1]; 300 mg q.d.,3
same,"Major Bleeds without aspirin, rate",[1]; 300 mg q.d.,2.1 per 100 patient-years
same,"Major Bleeds, number",[1]; 300 mg q.d.,5
same,"Major Bleeds, rate",[1]; 300 mg q.d.,2.5 per 100 patient-years
same,Major bleeding events,[1]; 300 mg q.d.,2.5 % per year
same,"Other MACE, number",[1]; 300 mg q.d.,1
same,"Stroke and Systemic Thromboembolism, number",[1]; 300 mg q.d.,5
same,"TIA, number",[1]; 300 mg q.d.,0
same,"fatal major bleeds, number",[1]; 300 mg q.d.,1
same,tolerability,[1]; 300 mg twice daily,not tolerable
same,Serious adverse events: cardiac disorders,[1]; PETRO-Ex,22%
same,"Serious adverse events: cardiac disorders, pts",[1]; PETRO-Ex,80
same,Serious adverse events: gastrointestinal disorders,[1]; PETRO-Ex,7.8%
same,"Serious adverse events: gastrointestinal disorders, pts",[1]; PETRO-Ex,28
same,Serious adverse events: infections,[1]; PETRO-Ex,9.4%
same,"Serious adverse events: infections, pts",[1]; PETRO-Ex,34
same,Serious adverse events: nervous system disorders,[1]; PETRO-Ex,9.1%
same,"Serious adverse events: nervous system disorders, pts",[1]; PETRO-Ex,33
same,Major bleeding events (per 100 patient years),"[1]; PETRO-Ex, 150 mg b.i.d., without concomitant aspirin",3.2%*
same,LFT abnormalities >3 x-ULN (per 100 patient years),"[1]; PETRO-Ex, All doses",1.7%
same,Serious adverse events,[1]; [4],51%
same,"Serious adverse events, patients",[1]; [4],184
same,"ALT or AST >2xULN, number",[1]; Total (all doses),30
same,"ALT or AST >2xULN, rate",[1]; Total (all doses),2.9 per 100 patient-years
same,"ALT or AST >3xULN and Bili >2xULN within 30 days, number",[1]; Total (all doses),4
same,"ALT or AST >3xULN and Bili >2xULN within 30 days, rate",[1]; Total (all doses),0.4 per 100 patient-years
same,"ALT or AST >3xULN, number",[1]; Total (all doses),18
same,"ALT or AST >3xULN, rate",[1]; Total (all doses),1.7 per 100 patient-years
same,"ALT or AST >5xULN, number",[1]; Total (all doses),11
same,"ALT or AST >5xULN, rate",[1]; Total (all doses),1.1 per 100 patient-years
same,"Adverse Events leading to premature discontinuation, number",[1]; Total (all doses),120
same,"Adverse Events leading to premature discontinuation, rate",[1]; Total (all doses),11.5 per 100 patient-years
same,"MI, number",[1]; Total (all doses),7
same,"Major Bleeds with aspirin, number",[1]; Total (all doses),19
same,"Major Bleeds with aspirin, rate",[1]; Total (all doses),8.5 per 100 patient-years
same,"Major Bleeds without aspirin, number",[1]; Total (all doses),26
same,"Major Bleeds without aspirin, rate",[1]; Total (all doses),3.2 per 100 patient-years
same,"Major Bleeds, number",[1]; Total (all doses),44
same,"Major Bleeds, rate",[1]; Total (all doses),4.2 per 100 patient-years
same,"Other MACE, number",[1]; Total (all doses),11
same,"Stroke and Systemic Thromboembolism, number",[1]; Total (all doses),20
same,"TIA, number",[1]; Total (all doses),1
same,"ALT or AST >3xULN and Bili >2xULN within 30 days, number","[1]; Total (all doses), listed as dabigatran etexilate",four
same,concomitant bilirubin elevation >2xULN within 30 days of transaminase elevations >3xULN,[1]; all doses,0.4 % per year
same,"elevated liver transaminases, AST or ALT >3xULN",[1]; all doses,1.7 % per year
same,"fatal intracranial bleeds, number",[1]; all doses,Three
same,"fatal major bleeds, number",[1]; all doses,Five
same,transaminases (AST or ALT) >5xULN,[1]; all doses,1.1 % per year
same,bleeding event risk ratio,[1]; concomitant aspirin vs. none,2.70
same,major bleed rate,[1]; doses ≦150 mg/day (150 mg q.d. combined with 50 mg b.i.d.),3.7 % per year
same,bleeding event rate,[1]; on concomitant aspirin,8.5 % per year
same,bleeding event rate,[1]; without concomitant aspirin,3.2 % per year
same,"effect of oral strong P-gp inhibitors verapamil, quinidine or amiodarone on dabigatran plasma concentrations",[2]; concomitant with dabigatran etexilate,elevate dabigatran plasma concentrations
same,food interactions,[2]; in vivo,no food interactions
same,onset of anticoagulant effect,[2]; time after dosing,one
same,"metabolism by, induction or inhibition of cytochrome P-450 drug metabolizing enzymes",[3],not metabolized by and does not induce or inhibit
